{
  "source": "patent US11254644B2",
  "about": "“Inhibitors of alpha-amino-beta-carboxymuconic acid semialdehyde decarboxylase” (TES Pharma S.r.l., priority 2014, dated 2022)",
  "key": {"[1]": {"biological_target": "hACMSD (ACMSD1) (Homo sapiens (Human), UniProt Q8TDX5)", "sequence (Q8TDX5 whole entry)": "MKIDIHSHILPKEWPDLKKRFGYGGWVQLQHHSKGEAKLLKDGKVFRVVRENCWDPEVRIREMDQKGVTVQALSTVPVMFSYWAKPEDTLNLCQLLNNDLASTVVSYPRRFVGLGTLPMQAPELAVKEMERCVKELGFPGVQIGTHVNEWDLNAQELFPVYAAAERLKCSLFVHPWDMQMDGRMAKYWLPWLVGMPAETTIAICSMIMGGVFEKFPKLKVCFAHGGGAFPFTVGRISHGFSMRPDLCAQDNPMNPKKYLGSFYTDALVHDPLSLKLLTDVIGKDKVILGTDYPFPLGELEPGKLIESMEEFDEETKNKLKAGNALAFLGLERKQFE", "assay": "Determination of ACMSD1 inhibition, spectrophotometrical in vitro assay", "assay_type": "biochemical", "settings": "HAA concentration of 10 μM", "description": "The activity of compounds as inhibitors of ACMSD1 is determined in a spectrophotometrical in vitro assay. The pre-assay mixture is incubated and a compound of Formula (I), Formula (Ia), Formula (Ib), Formula (II), or Formula (III), or a pharmaceutically acceptable salt thereof, and ACMSD1 solution is then added. The effect of ACMS concentration on the enzyme activity is investigated by varying 3-hydroxyanthranilic acid (3OH-HA) concentration in the pre-assay mixture. Kinetic parameters are calculated from the initial velocity data using a Lineweaver-Burk plot.\nThe activity of compounds 1-19 and 21-23 as inhibitors of ACMSD1 was determined by measuring the conversion of 3OH-Anthranilic Acid into product (i.e., ACMS) in a spectrophotometrical in vitro assay.\nThe pre-assay mixture consisting of 3-hydroxyanthranilic acid (3OH-HA), 3-hydroxyanthranilic acid, 3,4-diOxygenase (HAO), and a dialyzed crude extract of E. coli BL21 (DE3) cells expressing the recombinant enzyme, was incubated at 25° C. with monitoring of the increase in absorbance at 360 nm due to the formation of ACMS from 3OH-HA. After the reaction was completed within ˜2 mins, an aliquot of ACMSD1 solution (prepared and purified from Pichia Pastoris overexpressing the recombinant enzyme) was added, and the decrease in absorbance at 360 nm was followed at 15 second intervals. The effect of ACMS concentration on the enzyme activity was investigated by varying 3OH-HA concentration from 2 to 20 μM. Kinetic parameters were calculated from the initial velocity data by using the Lineweaver-Burk plot.\nThe rate of the decrease in absorbance caused by ACMSD1 was calculated by subtracting that of the control reaction mixture without ACMSD from that described above. One unit of ACMSD activity was indicated as the amount of enzyme that converts 1 mmol of ACMS per minute at 25° C. The absence or a reduction of ACMSD1 activity (e.g., by using ACMSD inhibitors) results in a slow ACMS-spontaneous degradation (i.e., cyclization to form quinolic acid).\nThe enzymatic activity was determined at a HAA concentration of 10 μM in the presence of the compounds in Table 1 below. The compounds were tested at the concentration of about 5 μM and 10 μM and the IC50 was calculated for compounds showing inhibitory activity higher than 50%."}, "[2]": {"biological_target": "ACMSD-1 (Homo sapiens (Human), UniProt Q8TDX5)", "sequence (Q8TDX5 whole entry)": "as above", "assay": "ACMSD-1 modulation in HEK293T cells transiently expressing ACMSD", "assay_type": "cell-based", "settings": "about 50 nM to about 5 uM; stimulated 48 hrs to 72 hrs", "protocol": "HEK293T cells are seeded and transfected to transiently express ACMSD. […] The amount of the whole protein content in cell lysates is detected by Bradford analysis and used to get the specificity activity of the enzyme normalized in all samples.\nHEK293T cells (ATCC) were seeded in six-well plates and transfected using Fugene HD to express transiently ACMSD. […] The amount of the whole protein content in cell lysates was detected by Bradford analysis. This value was used to get the specificity activity of the enzyme normalized in all samples (mU/ml or ΔE/Δt/mg of total protein)."}, "[3]": {"tested_on": "SIRT1-regulated genes in AML-12 cells", "assay": "RT-qPCR analysis of SIRT1-regulated genes in AML-12 cells", "assay_type": "cell-based, mouse", "settings": "24 hrs", "description": "(§1) Cells (AML-12, Hepa-1.6, HEK-293, primary human and murine hepatocytes) are treated with different concentrations of a compound of Formula (I), Formula (Ia), Formula (Ib), Formula (II), or Formula (III), or a pharmaceutically acceptable salt thereof and the gene expression of ACMSD, Pgc1a, Sod1, and Sod2 (MnSOD) is determined using RT-qPCR. Total RNA is extracted from cells and the extracted RNA is treated with DNase and used for reverse transcription (RT).\n(§2) Gene expression of ACMSD and genes known to be regulated by SIRT1, (an enzyme that is strictly NAD^+ dependent) such as Pgc1a, Sod1, Sod2 (MnSOD), were analysed in AML-12 cells, Hepa-1.6 cells and primary murine hepatocytes treated with Compound 1 or 17.\n(§3) Cells (AML-12, Hepa-1.6, HEK-293, primary human and murine hepatocytes) were treated with different concentrations of Compound 1 or Compound 17. Total RNA was extracted from cells using TRIzol (Invitrogen) according to the manufacturer's instructions. The RNA was treated with DNase, and 2 μg of RNA was used for reverse transcription (RT). 50× diluted cDNA was used for RT-quantitative PCR (RT-qPCR) reactions. The RT-qPCR reactions were performed using the Light-Cycler system (Roche Applied Science) and a qPCR Supermix (QIAGEN) with the indicated primers. The average of at least three technical repeats was used for each biological data point."}, "[4]": {"tested_on": "SIRT1-regulated genes in Hepa-1.6 cells", "assay": "RT-qPCR analysis of SIRT1-regulated genes in Hepa-1.6 cells", "assay_type": "cell-based", "settings": "Hepa-1.6 hepatic cell line, 24 hrs", "description": "as §1, §2, §3"}, "[5]": {"tested_on": "SOD2 activity in primary murine hepatocytes", "assay": "Modulation of SOD2 activity in murine primary hepatocytes", "assay_type": "cell-based, mouse", "description": "Primary hepatocytes or AML-12 cells are lysed and total protein concentration is determined using the Bradford assay. SOD2 activity is determined at indicated times after treatment with a compound of Formula (I), Formula (Ia), Formula (Ib), Formula (II), or Formula (III), or a pharmaceutically acceptable salt thereof, using a SOD Assay Kit. Absorbance is determined and results are expressed in U/ml/mg of protein according to the standard curve and measured protein concentration.\nPrimary hepatocytes were prepared from 8-12-week-old C57BL/6J mice by collagenase perfusion method. […] Cell viability was assessed by the trypan blue method. […]\nPrimary hepatocytes or AML-12 cells were then lysed in a 20 mM HEPES buffer (Gibco), pH 7.2, containing 1 mM EGTA (Sigma), 210 mM mannitol (Sigma), and 70 mM sucrose (AMRESCO). Total protein concentration was determined using the Bradford assay (BioRad). SOD-2 activity was determined at indicated times after ACMSD inhibitor treatment by the SOD Assay Kit (Cayman Chemical) according to the manufacturer's instructions. […] Absorbance was determined with a Victor X4 multi-label plate reader (Perkin-Elmer) at 450 nm. Results are expressed in U/ml/mg of protein according to the standard curve and measured protein concentration."}, "[6]": {"tested_on": "murine primary hepatocytes", "assay": "NAD+ content in murine primary hepatocytes (HPLC, mass spectrometry)", "assay_type": "cell-based, mouse", "settings": "24 hours", "excerpt": "NAD^+ is extracted using acidic extraction method and samples are collected and homogenized. After insoluble protein parts are pelleted, the samples are separated by high-performance liquid chromatography (HPLC) and analyzed by mass-spectrometry. The proteins in the pellet are quantified by Bradford assay and are used for normalization.\nNAD^+ was extracted using acidic extraction method. Samples were collected and homogenized in 70% ice-cold perchloric acid (HClO4). After insoluble protein parts were pelleted by adding potassium carbonate (K2CO3), the samples were separated by high-performance liquid chromatography (HPLC) and analyzed by mass-spectrometry. The proteins in the pellet were quantified by Bradford assay and were used for normalization."}, "[7]": {"tested_on": "SIRT1-regulated genes (Pgc1a, Sod1, Sod2) in primary mouse hepatocytes", "assay": "RT-qPCR analysis of SIRT1-regulated genes in primary murine hepatocytes", "assay_type": "cell-based", "settings": "24 hrs, 5 nM-500 nM range", "description": "as §1\nPrimary hepatocytes were prepared from 8-12-week-old C57BL/6J mice by collagenase perfusion method. Mouse livers were perfused with Hank's balanced salt solution (HBSS, KCl, 5.4 mM; KH2PO4, 0.45 mM; NaCl, 138 mM; NaHCO3, 4.2 mM; Na2HPO4, 0.34 mM; glucose, 5.5 mM; HEPES, 1 M; EGTA, 50 mM; CaCl2), 50 mM; pH 7.4). Livers were then washed at a rate of 5 ml/min through the portal vein. After washing, livers were perfused with collagenase (0.025%) solution. Cell viability was assessed by the trypan blue method. Isolated primary hepatocytes were plated with DMEM medium (Gibco) including 10% FCS, 10 units per ml penicillin and HEPES for buffering. The cells were maintained in culture at 37° C. in a humidified atmosphere of 5% CO2/95% air. After 6-8 hrs of attachment, this medium was replaced with media containing different concentrations of an ACMSD inhibitor (i.e., Compound 1 or Compound 17) or with the corresponding concentration of DMSO (as a control). Primary hepatocytes were harvested about 24 hrs later if not indicated differently.\nas §2\nCells (AML-12, Hepa-1.6, HEK-293, primary human and murine hepatocytes) were treated with different concentrations of Compound 1 or Compound 17. Total RNA was extracted from cells using TRIzol (Invitrogen) according to the manufacturer's instructions. […] 50× diluted cDNA was used for RT-quantitative PCR (RT-qPCR) reactions. […]"}},
  "data": [
    {"smiles": "N#Cc1c(-c2ccccc2)nc(SCc2cccc(C(=O)O)c2)[nH]c1=O", "note": "[Compound 1]", "values": [
      {"measurement": "IC50", "setting": "[1]", "value": 50, "unit": "nM"},
      {"measurement": "ACMSD-1 activity in transfected HEK293T cells", "setting": "[2]", "value": "inhibited ACMSD-1 activity, in a dose dependent manner"},
      {"measurement": "Sod2 mRNA levels", "setting": "[3]", "value": "increased in a dose-dependent manner"},
      {"measurement": "Sod2 mRNA levels", "setting": "[4]", "value": "increased in a dose-dependent manner"}
    ]},
    {"smiles": "N#Cc1c(-c2cccs2)nc(SCc2cccc(-c3nn[nH]n3)c2)[nH]c1=O", "note": "[Compound 17]", "values": [
      {"measurement": "IC50", "setting": "[1]", "value": 5, "unit": "nM"},
      {"measurement": "dose at which SOD2 effect reached a maximum", "setting": "[5]", "value": "about 50 nM"},
      {"measurement": "lowest concentration with significant effect on NAD+ levels", "setting": "[6]", "value": "≤ 5", "unit": "nM"},
      {"measurement": "Pgc1a mRNA expression level", "setting": "[7]", "value": "dose-dependent increase"},
      {"measurement": "Sod1 (Cu-Zn SOD) mRNA expression level", "setting": "[7]", "value": "but not Sod1"},
      {"measurement": "Sod2 (MnSOD) mRNA expression level", "setting": "[7]", "value": "dose-dependent increase"}
    ]}
  ]
}
